This is an account of results in patent US10968218B2, “Tetrahydropyridopyrimidines for the treatment and prophylaxis of hepatitis B virus infection” (Hoffmann-La Roche Inc., priority 2016, dated 2021).

Molecules are shown by their SMILES.

This test concerns HBsAg. Put plainly: HBsAg assay (CLIA of secreted HBsAg in HepG2.2.15 culture supernatant). The class given is cell-based, HBV. The following applies: Hepatitis B virus. How it is done:
HepG2.2.15 cells (Acs et al. Proc Natl Acad Sci USA, 84, (1987), 4641-4), a constitutively HBV-expressing cell line were cultured in DMEM+Glutamax-I medium (Invitrogen, Carlsbad, Calif., USA), supplemented with 10% fetal bovine serum (Invitrogen) and G418 (Invitrogen) at a final concentration of 200 mg/L and maintained in 5% CO2 at 37° C.
HepG2.2.15 cells were seeded in duplicate into white, 96-well plates at 1.5×10^4 cells/well. The cells were treated with a three-fold serial dilution series of the compounds in DMSO. The final DMSO concentration in all wells was 1% and DMSO was used as no drug control.
The HBsAg chemiluminescence immunoassay (CLIA) kit (Autobio Diagnostics Co., Zhengzhou, China, Catalog number: CL0310-2) was used to measure the levels of secreted HBV antigens semi-quantitatively. For the detection 50 μL/well culture supernatant was used and HBsAg was quantified using HBsAg chemiluminescence immunoassay (CLIA) kit (Autobio Diagnostics Co., Zhengzhou, China, Catalog number: CL0310-2), 50 μL of the supernatant was transferred to the CLIA assay plate and 50 μL of enzyme conjugate reagent was added into each well. The plates were sealed and gently agitated for 1 hour at room temperature. The supernatant-enzyme-mixture was discarded and wells were washed 6 times with 300 μL of PBS. The residual liquid was removed by plating the CLIA plate right side down on absorbent tissue paper. 25 μL of substrates A and B were added to each well. Luminance was measured using a luminometer (Mithras LB 940 Multimode Microplate Reader) after 10 minutes incubation. Dose-response curves were generated and the IC50 value was extrapolated by using the E-WorkBook Suite (ID Business Solutions Ltd., Guildford, UK). The IC50 was defined as the compound concentration at which HBsAg secretion was reduced by 50% compared to the no drug control.
The compounds according to formula I were tested for their capacity to inhibit HBsAg as described herein.
What is called IC50 is the point on the concentration scale where inhibition reaches its midpoint. A high value points to lower potency. The compound `COc1cc(F)nc(N2CCc3nc(-c4cn(C)cn4)ncc3C2C)c1` (stereo not drawn) [Example 8, 6-(6-Fluoro-4-methoxy-2-pyridyl)-5-methyl-2-(1-methylimidazol-4-yl)-7,8-dihydro-5H-pyrido[4,3-d]pyrimidine] showed an IC50 of 29 nM. In turn, `COc1cc(F)nc(N2CCc3nc(-c4ncsc4C)ncc3C2C)c1` (stereo not drawn) [Example 42, 4-[6-(6-Fluoro-4-methoxy-2-pyridyl)-5-methyl-7,8-dihydro-5H-pyrido[4,3-d]pyrimidin-2-yl]-5-methyl-thiazole] yielded an IC50 of 282 nM. To `CC1c2cnc(-c3cscn3)nc2CCN1c1cc(F)cc(N2CCN(S(C)(=O)=O)CC2)n1` (stereo not drawn) [Example 22, 4-[6-[4-fluoro-6-(4-methylsulfonylpiperazin-1-yl)-2-pyridyl]-5-methyl-7,8-dihydro-5H-pyrido[4,3-d]pyrimidin-2-yl]thiazole] belongs 66 nM; to `COc1cc(F)nc(N2CCc3nc(-c4nccn4C)ncc3C2C)c1` (stereo not drawn) [Example 7, 6-(6-Fluoro-4-methoxy-2-pyridyl)-5-methyl-2-(1-methylimidazol-2-yl)-7,8-dihydro-5H-pyrido[4,3-d]pyrimidine], 16700 nM. `CC1c2cnc(-c3cscn3)nc2CCN1c1cc(F)nc(N2CCNC(=O)C2)c1` (stereo not drawn) [Example 28, 4-[6-fluoro-4-(5-methyl-2-thiazol-4-yl-7,8-dihydro-5H-pyrido[4,3-d]pyrimidin-6-yl)-2-pyridyl]piperazin-2-one]: the IC50 came out at 42 nM.

Regarding `CC1c2cnc(-c3cscn3)nc2CCN1c1cc(F)cc(OCC(F)F)n1` (stereo not drawn) [Example 36, 4-[6-[6-(2,2-difluoroethoxy)-4-fluoro-2-pyridyl]-5-methyl-7,8-dihydro-5H-pyrido[4,3-d]pyrimidin-2-yl]thiazole], the IC50 amounted to 112 nM. The figure for `CC1c2cnc(-c3cscn3)nc2CCN1c1cc(F)nc(OCC(F)F)c1` (stereo not drawn) [Example 34, 4-[6-[2-(2,2-difluoroethoxy)-6-fluoro-4-pyridyl]-5-methyl-7,8-dihydro-5H-pyrido[4,3-d]pyrimidin-2-yl]thiazole] is 140 nM. To `COC1CCN(c2cc(F)nc(N3CCc4nc(-c5cscn5)ncc4C3C)c2)C1` (stereo not drawn) [Example 24, 4-[6-[6-fluoro-4-(3-methoxypyrrolidin-1-yl)-2-pyridyl]-5-methyl-7,8-dihydro-5H-pyrido[4,3-d]pyrimidin-2-yl]thiazole] belongs 23 nM; to `CC1c2cnc(-c3cscn3)nc2CCN1c1cc(N2CCCC2)cc(F)n1` (stereo not drawn) [Example 18, 4-[6-(6-fluoro-4-pyrrolidin-1-yl-2-pyridyl)-5-methyl-7,8-dihydro-5H-pyrido[4,3-d]pyrimidin-2-yl]thiazole], 16 nM. With `CC1c2cnc(-c3cscn3)nc2CCN1c1cc(F)cc(OCC2CC2)n1` (stereo not drawn) [Example 33, 4-[6-[6-(cyclopropylmethoxy)-4-fluoro-2-pyridyl]-5-methyl-7,8-dihydro-5H-pyrido[4,3-d]pyrimidin-2-yl]thiazole], the IC50 worked out at 212 nM. In the case of `CC1c2cnc(-c3cscn3)nc2CCN1c1cc(OCC2CC2)cc(F)n1` (stereo not drawn) [Example 32, 4-[6-[4-(cyclopropylmethoxy)-6-fluoro-2-pyridyl]-5-methyl-7,8-dihydro-5H-pyrido[4,3-d]pyrimidin-2-yl]thiazole], half-maximal inhibition (IC50) required 39 nM. To `COc1cc(F)nc(N2CCc3nc(-c4cnc(C)s4)ncc3C2C)c1` (stereo not drawn) [Example 16, 5-[6-(6-fluoro-4-methoxy-2-pyridyl)-5-methyl-7,8-dihydro-5H-pyrido[4,3-d]pyrimidin-2-yl]-2-methyl-thiazole] belongs 25800 nM; to `CC1c2cnc(-c3cscn3)nc2CCN1c1cc(F)nc(OCC2CC2)c1` (stereo not drawn) [Example 31, 4-[6-[2-(cyclopropylmethoxy)-6-fluoro-4-pyridyl]-5-methyl-7,8-dihydro-5H-pyrido[4,3-d]pyrimidin-2-yl]thiazole], 117 nM; to `COc1cc(F)nc(N2CCc3nc(-n4cccn4)ncc3C2C)c1` (stereo not drawn) [Example 9, 6-(6-Fluoro-4-methoxy-2-pyridyl)-5-methyl-2-pyrazol-1-yl-7,8-dihydro-5H-pyrido[4,3-d]pyrimidine], 95 nM. With `COc1cc(F)nc(N2CCc3nc(-c4nccs4)ncc3C2C)c1` (stereo not drawn) [Example 6, 2-[6-(6-Fluoro-4-methoxy-2-pyridyl)-5-methyl-7,8-dihydro-5H-pyrido[4,3-d]pyrimidin-2-yl]thiazole], half-maximal inhibition (IC50) was put at 118 nM. To `COC1CCN(c2cc(F)cc(N3CCc4nc(-c5cscn5)ncc4C3C)n2)C1` (stereo not drawn) [Example 25, 4-[6-[4-fluoro-6-(3-methoxypyrrolidin-1-yl)-2-pyridyl]-5-methyl-7,8-dihydro-5H-pyrido[4,3-d]pyrimidin-2-yl]thiazole] belongs 60 nM.

As to `COc1cc(N2CCc3nc(-c4nccn4C)ncc3C2)cc(F)c1F` [Example 1, 6-(3,4-Difluoro-5-methoxy-phenyl)-2-(1-methylimidazol-2-yl)-7,8-dihydro-5H-pyrido[4,3-d]pyrimidine], half-maximal inhibition (IC50) required 1160 nM. As for `CC1c2cnc(-c3cscn3)nc2CCN1c1cc(F)cc(N2CCNC(=O)C2)n1` (stereo not drawn) [Example 30, 4-[4-fluoro-6-(5-methyl-2-thiazol-4-yl-7,8-dihydro-5H-pyrido[4,3-d]pyrimidin-6-yl)-2-pyridyl]piperazin-2-one], the IC50 came out at 21 nM. For `CC1c2cnc(-c3cscn3)nc2CCN1c1cc(N2CCOCC2)cc(F)n1` (stereo not drawn) [Example 13, 4-[2-fluoro-6-(5-methyl-2-thiazol-4-yl-7,8-dihydro-5H-pyrido[4,3-d]pyrimidin-6-yl)-4-pyridyl]morpholine], the IC50 is 33 nM. `CC1c2cnc(-c3cscn3)nc2CCN1c1cc(N2CCN(S(C)(=O)=O)CC2)cc(F)n1` (stereo not drawn) [Example 21, 4-[6-[6-fluoro-4-(4-methylsulfonylpiperazin-1-yl)-2-pyridyl]-5-methyl-7,8-dihydro-5H-pyrido[4,3-d]pyrimidin-2-yl]thiazole] yielded a concentration for half-maximal inhibition (IC50) of 16 nM. The compound `CC1c2cnc(-c3cscn3)nc2CCN1c1cc(F)nc(N2CCCC2)c1` (stereo not drawn) [Example 17, 4-[6-(2-fluoro-6-pyrrolidin-1-yl-4-pyridyl)-5-methyl-7,8-dihydro-5H-pyrido[4,3-d]pyrimidin-2-yl]thiazole] had an IC50 of 17 nM.

Regarding `CC1c2cnc(-c3cscn3)nc2CCN1c1cc(F)nc(OCC2CCOC2)c1` (stereo not drawn) [Example 37, 4-[6-[2-fluoro-6-(tetrahydrofuran-3-ylmethoxy)-4-pyridyl]-5-methyl-7,8-dihydro-5H-pyrido[4,3-d]pyrimidin-2-yl]thiazole], the IC50 is 70 nM. The figure for `CC1c2cnc(-c3cscn3)nc2CCN1c1cc(F)cc(N2CCOCC2)n1` (stereo not drawn) [Example 14, 4-[4-fluoro-6-(5-methyl-2-thiazol-4-yl-7,8-dihydro-5H-pyrido[4,3-d]pyrimidin-6-yl)-2-pyridyl]morpholine] is 74 nM; for `COC1CCN(c2cc(N3CCc4nc(-c5cscn5)ncc4C3C)cc(F)n2)C1` (stereo not drawn) [Example 23, 4-[6-[2-fluoro-6-(3-methoxypyrrolidin-1-yl)-4-pyridyl]-5-methyl-7,8-dihydro-5H-pyrido[4,3-d]pyrimidin-2-yl]thiazole] it is 35 nM; for `COc1cc(F)nc(N2CCc3nc(-n4nccn4)ncc3C2C)c1` (stereo not drawn) [Example 3, 6-(6-Fluoro-4-methoxy-2-pyridyl)-5-methyl-2-(triazol-2-yl)-7,8-dihydro-5H-pyrido[4,3-d]pyrimidine] it is 666 nM. The compound `CC1c2cnc(-c3cscn3)nc2CCN1c1cc(N2CCNC(=O)C2)cc(F)n1` (stereo not drawn) [Example 29, 4-[2-fluoro-6-(5-methyl-2-thiazol-4-yl-7,8-dihydro-5H-pyrido[4,3-d]pyrimidin-6-yl)-4-pyridyl]piperazin-2-one] had an IC50 of 34 nM. In turn, `CC1c2cnc(-c3cscn3)nc2CCN1c1cc(OCCCN2CCCC2=O)cc(F)n1` (stereo not drawn) [Example 41, 1-[3-[[2-fluoro-6-(5-methyl-2-thiazol-4-yl-7,8-dihydro-5H-pyrido[4,3-d]pyrimidin-6-yl)-4-pyridyl]oxy]propyl]pyrrolidin-2-one] displayed an IC50 of 102 nM. For `COc1cc(F)nc(N2CCc3nc(-c4cn(Cc5ccccc5)cn4)ncc3C2C)c1` (stereo not drawn) [Example 10, 2-(1-Benzylimidazol-4-yl)-6-(6-fluoro-4-methoxy-2-pyridyl)-5-methyl-7,8-dihydro-5H-pyrido[4,3-d]pyrimidine], it took 421 nM to reach half-maximal inhibition (IC50). Take `CC1c2cnc(-c3cscn3)nc2CCN1c1cc(F)nc(N2CCOCC2)c1` (stereo not drawn) [Example 12, 4-[6-fluoro-4-(5-methyl-2-thiazol-4-yl-7,8-dihydro-5H-pyrido[4,3-d]pyrimidin-6-yl)-2-pyridyl]morpholine]: half-maximal inhibition (IC50) required 36 nM.

In the case of `CC1c2cnc(-c3cscn3)nc2CCN1c1cc(F)cc(N2CCCC2)n1` (stereo not drawn) [Example 19, 4-[6-(4-fluoro-6-pyrrolidin-1-yl-2-pyridyl)-5-methyl-7,8-dihydro-5H-pyrido[4,3-d]pyrimidin-2-yl]thiazole], it took 175 nM to reach half-maximal inhibition (IC50).
